The conditions of data set [1]: Balb/c mouse, single intraperitoneal 5 mg/kg.
Data set [2] has as its system MERS-CoV. Format: cell-based.
Data set [3] is classed as in vitro ADME, CD-1 mouse or human. The conditions noted are these: microsomes. Here is the method: Mouse and Human Liver Microsomes are respectively provided by RILD and coming. They are collected from CD-1 mouse or human and prepared in 100 mM potassium phosphate buffer. […] Aliquots are sampled at 0, 5, 15, 30, 45, and 60 min for LC-MS/MS analysis.
In data set [4] the test system is Caco-2 cells. Format: in vitro ADME. Here is the method:
Caco-2 cells are seeded onto 0.4 μm pore polycarbonate membranes (PC) in 96-well Corning Insert plates at a density of 3.5×10^4 cells/cm2.HBSS with 10.0 mM HEPES at pH 7.40±0.05 as the transport buffer. The compound is subjected to bidirectional testing in triplicate at 2.00 μM. The plate is incubated in a CO2 incubator with 5% CO2 at 37.0° C. and saturated humidity for two hours without shaking. All samples are centrifuged at 3220 g for 10 minutes after being combined with acetonitrile containing internal standard. Using the peak area ratio of the analyte/internal standard, LC-MS/MS techniques are used to quantify the concentrations of the compound in the beginning solution, donor solution, and recipient solution. Following transportation, lucifer yellow rejection assay is applied to determine the Caco-2 cell monolayer integrity.
For data analysis, Permeability (Papp), efflux ratio and Percent recovery are calculated using the following equations: […]

Data set [5] deals with VeroE6 cells. Kind of data set: in vitro. It is filed as cell-based. To be noted: African green monkey, 72 h, 100 μM. On the procedure:
(§1) FIG. 9. MTT cytotoxicity assays of SMART™ finalized hits compounds on VeroE6 cells. VeroE6 cells are treated with compounds of interest diluted from 100 μM to 0.78 μM in a 2-fold interval and incubate for 72 hours.
(§2) Briefly, cells are seeded onto a 96-well plate at a density of 20,000 cells per well one day before treatment. On the following day, compounds of interest are added to the cells in gradient concentrations and incubated at 37° C. with 5% CO2 for either 48 or 96 hours. After medium removal, 100 μL of 1×MTT solution in plain DMEM is added to the cells and incubated at 37° C. with 5% CO2 for 3-4 hours. Then, MTT lysis buffer (10% SDS/10 mM HCl) is added to the cells and incubated at room temperature for 3-4 hours. Cell viability is measured in absorbance (OD595) using a plate reader (Glomax, Promega).

The nature of data set [6]: in vitro. Format: cell-based. The conditions noted are these: African green monkey. Here is the method: as §1, §2
In data set [7] the test system is Wild Type SARS-CoV-2. The experiment in a line: Golden Syrian hamster experiment. It is filed as in vivo.
Data set [8] deals with 44 selected host targets including 24 GPCRs, 8 ion channels, 7 enzymes, 3 monoamine transporters, and 2 nuclear hormone receptors. To be noted: 10 μM.
Data set [9] has as its system recombinant WT SARS-CoV-2. Kind of data set: microbe, parasite or virus in culture. Format: cell-based. The conditions noted are these: for IC50: Severe acute respiratory syndrome coronavirus 2, recombinant WT virus, read-out: IC50 (plaque formation assay).
Data set [10] concerns HCoV-229E. Format: cell-based.
Data set [11] deals with SARS-CoV. It is filed as cell-based.

With `Cc1ccc(C2C3=C(CC(c4ccccc4)CC3=O)NC3=C2C(=O)c2ccccc23)cc1` (stereo not shown) [Compound 172, 10-(4-methylphenyl)-7-phenyl-6,7,8,10-tetrahydro-5H-indeno[1,2-b]quinoline-9,11-dione], in [1], the highest concentration (Cmax) amounted to 6.89 µM. Further, in data set [2], the “reduction in normalized expression of N gene in cell lysate” value was more than 5 log10. For the same compound, in [3], the metabolic stability entry is “moderate”. Also, the permeability result in data set [4] is listed as “moderate”. Besides, the “cell viability in MTT assay” value in data set [5] was “over 90%”. Also, the CC50 at 72 h in data set [6] is more than 100 µM. In addition, the “viral yield reduction in lung and nasal turbinate vs control group” value in data set [7] (1 mg/kg IP at 12-hour intervals, day 3) was 1 log 10. Besides, the “off-target effects on host proteins” value in data set [8] is given as “no significant off-target effects”. For the same compound, in data set [9], the 50% inhibitory concentration (IC50) came out at 3.88 µM. Moreover, the “viral RNA reduction in supernatant” value in data set [10] is “more than 3 log 10”. In addition, the “reduction of SARS-CoV viral load” value in data set [11] is 1 log 10.
For `CC(C)(C)[C@H](NC(=O)C(F)(F)F)C(=O)N1C[C@H]2[C@@H]([C@H]1C(=O)N[C@H](C#N)C[C@@H]1CCNC1=O)C2(C)C` [Nirmatrelvir], in [7] (Nirmatrelvir 200 mg/kg IP, Pelitinib oral 10 mg/kg, 12-hour intervals), the “protection (viral yield reduction) in animal lungs” value was more than 4 log 10. The 50% inhibitory concentration (IC50) in [9] came to 0.0184 µM.
Turning to `CCOc1cc2ncc(C#N)c(Nc3ccc(F)c(Cl)c3)c2cc1NC(=O)/C=C/CN(C)C` [Pelitinib], the “protection (viral yield reduction) in animal lungs” value in data set [7] (in vivo) is given as “marginal”. The IC50 in data set [9] is 1.62 µM. Moreover, the “inhibition of virus replication” value in data set [9] (WT virus) is “dose-dependent inhibition of WT virus replication”.

For orientation: Cmax means the peak of the concentration-time curve. A word on the CC50: it is the concentration at which the toxic effect on the cells reaches its halfway point. By IC50 is commonly meant the midpoint of a concentration-inhibition curve.

The values are drawn from patent US20250325535A1, “IDENTIFICATION OF NOVEL SMALL-MOLECULE INHIBITORS OF SARS-CoV-2 BY CHEMICAL GENETICS” (The University of Hong Kong, priority 2024, published 2025).
